Reference: ChEMBL document CHEMBL1136664, “N-Phenyl-N-purin-6-yl ureas: the design and synthesis of p38alpha MAP kinase inhibitors” (Bioorg Med Chem Lett, 2003)
Converted amounts (≈) assume the structure as drawn.

Assays:
[1] = molecular target: Mitogen-activated protein kinase 14 (Homo sapiens, UniProt Q16539); assay: Inhibition of human MAP p38-alpha kinase in vitro.
[2] = Aqueous solubility at pH 7.4; format: physicochemical

Chain of Mitogen-activated protein kinase 14 (Q16539 whole entry): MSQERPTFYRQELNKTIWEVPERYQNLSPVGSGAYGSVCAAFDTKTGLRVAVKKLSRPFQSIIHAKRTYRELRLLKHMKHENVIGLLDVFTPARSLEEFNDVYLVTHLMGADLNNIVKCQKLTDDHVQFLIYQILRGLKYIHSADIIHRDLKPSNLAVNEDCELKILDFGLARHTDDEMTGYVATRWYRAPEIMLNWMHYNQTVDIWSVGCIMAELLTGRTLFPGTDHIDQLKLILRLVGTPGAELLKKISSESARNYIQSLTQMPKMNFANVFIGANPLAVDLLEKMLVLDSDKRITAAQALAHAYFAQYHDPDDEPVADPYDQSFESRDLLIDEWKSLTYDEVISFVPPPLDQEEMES

## NC(=O)N(c1c(F)cccc1F)c1nc(-c2ccccc2F)nc2c1ncn2Cc1ccccc1
[1]
  IC50: 16 nM

## Cc1ccc(-c2nc(N(C(N)=O)c3c(F)cccc3F)c3ncn(C)c3n2)cc1
[1]
  IC50: 2100 nM

## Cc1cccc(-c2nc(N(C(N)=O)c3c(F)cccc3F)c3ncn(C)c3n2)c1
[1]
  IC50: 350 nM

## Cn1cnc2c(N(C(N)=O)c3c(F)cccc3F)nc(-c3cc(F)cc(F)c3)nc21
[1]
  IC50: > 16700 nM

## Cc1cc(F)ccc1-c1nc(N(C(N)=O)c2c(F)cc(F)cc2F)c2ncn(C)c2n1
[1]
  IC50: 163 nM

## Cc1cc(F)ccc1-c1nc(N(C(N)=O)c2ccc(F)cc2)c2ncn(C)c2n1
[1]
  IC50: 1400 nM

## Cc1ccccc1-c1nc(N(C(N)=O)c2c(F)cccc2F)c2ncn(C)c2n1
[1]
  IC50: 140 nM

## Cc1cc(F)ccc1-c1nc(N(C(N)=O)c2ccccc2Cl)c2ncn(C)c2n1
[1]
  IC50: 123 nM

## Cn1cnc2c(N(C(N)=O)c3c(F)cccc3F)nc(-c3ccccc3)nc21
[1]
  IC50: 510 nM

## Cc1cc(F)ccc1-c1nc(N(C(N)=O)c2ccccc2)c2ncn(C)c2n1
[1]
  IC50: > 16700 nM

## Cn1cnc2c(N(C(N)=O)c3c(F)cccc3F)nc(-c3ccc(F)cc3F)nc21
[1]
  IC50: 26 nM

## Cc1cc(F)ccc1-c1nc(N(C(N)=O)c2c(F)cccc2F)c2ncn(C)c2n1
[1]
  IC50: 128 nM

## Cn1cnc2c(N(C(N)=O)c3c(F)cccc3F)nc(-c3cccc(F)c3)nc21
[1]
  IC50: 5000 nM

## Cn1cnc2c(N(C(N)=O)c3c(F)cccc3F)nc(-c3ccc(F)cc3)nc21
[1]
  IC50: 1000 nM

## COc1ccccc1N(C(N)=O)c1nc(-c2ccc(F)cc2C)nc2c1ncn2C
[1]
  IC50: > 16700 nM

## Cn1cnc2c(N(C(N)=O)c3c(F)cccc3F)nc(-c3cccc(Cl)c3)nc21
[1]
  IC50: 550 nM

## CN(C)CCn1cnc2c(N(C(N)=O)c3c(F)cccc3F)nc(-c3ccccc3F)nc21
[1]
  IC50: 82 nM
[2]
  solubility: > 20 µM

## Cn1cnc2c(N(C(N)=O)c3c(F)cccc3F)nc(-c3ccccc3F)nc21
[1]
  IC50: 36 nM
[2]
  solubility: 1 µM (≈ 0.398 µg/mL)

## Cc1cc(F)ccc1-c1nc(N(C(N)=O)c2ccc(Cl)cc2)c2ncn(C)c2n1
[1]
  IC50: 9800 nM

## Cn1cnc2c(N(C(N)=O)c3c(F)cccc3F)nc(-c3ccccc3Cl)nc21
[1]
  IC50: 30 nM
